Laboratory results reported in ChEMBL document CHEMBL1221163, “Monocarboxylate transporter MCT1 is a target for immunosuppression” (Nat Chem Biol, 2005).
Calls of active or inactive are those of the source. The calls are words filed in the database; no cut-off is given here.

Columns and labels:
HUVEC [1] = assay: Antiproliferative activity against human HUVEC assessed as inhibition of acidic FGF-stimulated cell proliferation by fluorimetric assay; format: functional, cell-based
HUVEC [2] = assay: Antiproliferative activity against human HUVEC assessed as inhibition of basic FGF-stimulated cell proliferation by fluorimetric assay; format: functional, cell-based
[3] = Antiproliferative activity against human primary epidermal keratinocytes assessed as inhibition of cell proliferation by fluorimetric assay; format: functional, cell-based; conditions: Keratinocyte
HEK293 [4] = assay: Antiproliferative activity against HEK293 cells assessed as inhibition of cell proliferation by fluorimetric assay; format: functional, cell-based; conditions: Homo sapiens
THP-1 [5] = assay: Antiproliferative activity against human THP1 cells assessed as inhibition of cell proliferation by fluorimetric assay; format: functional, cell-based
K562 [6] = assay: Antiproliferative activity against human K562 cells assessed as inhibition of cell proliferation by fluorimetric assay; format: functional, cell-based
HT-29 [7] = assay: Antiproliferative activity against human HT-29 cells assessed as inhibition of cell proliferation by fluorimetric assay; format: functional, cell-based
SW480 [8] = assay: Antiproliferative activity against human SW480 cells assessed as inhibition of cell proliferation by fluorimetric assay; format: functional, cell-based
ZR-75-1 [9] = assay: Antiproliferative activity against human ZR-75-1 cells assessed as inhibition of cell proliferation by fluorimetric assay; format: functional, cell-based
PANC-1 [10] = assay: Antiproliferative activity against human PANC1 cells assessed as inhibition of cell proliferation by fluorimetric assay; format: functional, cell-based
T-24 [11] = assay: Antiproliferative activity against human T24 cells assessed as inhibition of cell proliferation by fluorimetric assay; format: functional, cell-based
[12] = Antiproliferative activity against human KIT225 cells assessed as inhibition of IL2-stimulated cell proliferation by fluorimetric assay; format: functional, cell-based
HUVEC [13] = assay: Antiproliferative activity against human HUVEC assessed as inhibition of acidic FGF-stimulated cell proliferation at 1 uM by fluorimetric assay; format: functional
HUVEC [14] = assay: Antiproliferative activity against human HUVEC assessed as inhibition of basic FGF-stimulated cell proliferation at 1 uM by fluorimetric assay; format: functional
[15] = Antiproliferative activity against human primary epidermal keratinocytes assessed as inhibition of cell proliferation at 1 uM by fluorimetric assay; format: functional; conditions: Keratinocyte
HEK293 [16] = assay: Antiproliferative activity against HEK293 cells assessed as inhibition of cell proliferation at 1 uM by fluorimetric assay; format: functional; conditions: Homo sapiens
THP-1 [17] = assay: Antiproliferative activity against human THP1 cells assessed as inhibition of cell proliferation at 1 uM by fluorimetric assay; format: functional
K562 [18] = assay: Antiproliferative activity against human K562 cells assessed as inhibition of cell proliferation at 1 uM by fluorimetric assay; format: functional
HT-29 [19] = assay: Antiproliferative activity against human HT-29 cells assessed as inhibition of cell proliferation at 1 uM by fluorimetric assay; format: functional
SW480 [20] = assay: Antiproliferative activity against human SW480 cells assessed as inhibition of cell proliferation at 1 uM by fluorimetric assay; format: functional
ZR-75-1 [21] = assay: Antiproliferative activity against human ZR-75-1 cells assessed as inhibition of cell proliferation at 1 uM by fluorimetric assay; format: functional
PANC-1 [22] = assay: Antiproliferative activity against human PANC1 cells assessed as inhibition of cell proliferation at 1 uM by fluorimetric assay; format: functional
T-24 [23] = assay: Antiproliferative activity against human T24 cells assessed as inhibition of cell proliferation at 1 uM by fluorimetric assay; format: functional
[24] = Antiproliferative activity against human KIT225 cells assessed as inhibition of IL2-stimulated cell proliferation at 1 uM by fluorimetric assay; format: functional
T-cell [25] = assay: Antiproliferative activity against human T cells assessed as inhibition of PMA-ionomycin stimulated cell proliferation by [3H]thymidine incorporation assay; format: functional, cell-based
T-cell [26] = assay: Antiproliferative activity against Lewis rat T cells assessed as inhibition of PMA-ionomycin stimulated cell proliferation by [3H]thymidine incorporation assay; format: functional, cell-based
PBMC = assay: Antiproliferative activity against human PBMC assessed as inhibition of PMA/ionomycin-stimulated cell proliferation by [3H]thymidine incorporation assay; format: functional, cell-based
Rattus norvegicus [27] = assay: Inhibition of graft-versus-host response-induced lymph node expansion in DA/Lewis recipient rat administered once daily through subcutaneous route; format: functional; conditions: sc
[28] = target: T1, Monocarboxylate transporter 3 (Homo sapiens) (UniProt O95907); assay: Inhibition of human MCT3 expressed in INS1 cells assessed as reduction in intracellular acidification at 100 nM after 1 hr by L-Lactate uptake based BCECF staining; format: cell-based
T1 sequence (whole entry): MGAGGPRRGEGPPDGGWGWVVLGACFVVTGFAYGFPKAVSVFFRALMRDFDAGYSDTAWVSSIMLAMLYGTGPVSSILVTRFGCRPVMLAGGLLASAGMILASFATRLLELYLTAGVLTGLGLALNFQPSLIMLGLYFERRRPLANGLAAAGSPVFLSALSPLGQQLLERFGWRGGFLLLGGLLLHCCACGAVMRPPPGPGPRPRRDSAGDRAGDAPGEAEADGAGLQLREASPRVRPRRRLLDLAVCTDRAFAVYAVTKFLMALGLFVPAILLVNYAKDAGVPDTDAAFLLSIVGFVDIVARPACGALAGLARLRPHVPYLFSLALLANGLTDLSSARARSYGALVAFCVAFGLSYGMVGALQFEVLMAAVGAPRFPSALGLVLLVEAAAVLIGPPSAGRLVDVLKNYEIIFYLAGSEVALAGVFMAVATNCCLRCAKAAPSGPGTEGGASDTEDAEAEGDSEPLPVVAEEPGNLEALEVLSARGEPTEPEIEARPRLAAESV

[29] = target: T2, Monocarboxylate transporter 4 (Homo sapiens) (UniProt O15427); assay: Inhibition of human MCT4 expressed in INS1 cells assessed as reduction in intracellular acidification at 100 nM after 1 hr by L-Lactate uptake based BCECF staining; format: cell-based
T2 sequence (whole entry): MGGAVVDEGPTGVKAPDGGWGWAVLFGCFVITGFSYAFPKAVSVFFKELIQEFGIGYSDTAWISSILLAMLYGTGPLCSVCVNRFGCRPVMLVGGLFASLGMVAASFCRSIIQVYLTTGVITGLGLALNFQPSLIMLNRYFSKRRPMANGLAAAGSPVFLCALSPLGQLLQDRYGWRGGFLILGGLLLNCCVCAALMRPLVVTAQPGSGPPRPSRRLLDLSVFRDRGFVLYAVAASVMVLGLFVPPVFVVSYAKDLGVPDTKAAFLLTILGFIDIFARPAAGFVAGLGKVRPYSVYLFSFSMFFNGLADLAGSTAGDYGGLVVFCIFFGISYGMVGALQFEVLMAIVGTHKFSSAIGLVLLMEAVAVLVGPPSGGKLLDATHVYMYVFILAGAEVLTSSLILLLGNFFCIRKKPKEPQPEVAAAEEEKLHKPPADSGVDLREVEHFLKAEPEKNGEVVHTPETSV

T-cell [30] = assay: Increase in intracellular lactate production in PMA-ionomycin stimulated human T cells after 4 hrs; format: functional, cell-based
[31] = Antiproliferative activity against human T cells assessed as inhibition of PMA-ionomycin stimulated cell proliferation after 3 days by [3H]thymidine incorporation assay; format: functional, cell-based
T-cell [32] = assay: Inhibition of conversion of [1,2-13C2]glucose into [2,3-13C2]lactate in PMA-ionomycin stimulated human T cells at 10 nM after 6 hrs by GC-MS method; format: functional, cell-based
Rattus norvegicus [33] = organism: Rattus norvegicus; conditions: DA/Lewis, 4 mg/kg
T-cell [34] = conditions: Homo sapiens, 10 uM
T-cell [35] = conditions: Homo sapiens, 10 uM; remark: listed apart in the source
T-cell [36] = conditions: Homo sapiens, 50 nM

What does the source list for `CC(C)Cn1c(=O)n(C)c(=O)c2c(SCCCO)c(Cc3cccc4ccccc34)sc21`?
IC50 (HUVEC [1]): > 1 µM; IC50 (HUVEC [2]): > 1 µM; IC50 [3]: > 1 µM; IC50 (HEK293 [4]): > 1 µM; IC50 (THP-1 [5]): > 1 µM; IC50 (K562 [6]): > 1 µM; IC50 (HT-29 [7]): > 1 µM; IC50 (SW480 [8]): > 1 µM; IC50 (ZR-75-1 [9]): > 1 µM; IC50 (PANC-1 [10]): > 1 µM; IC50 (T-24 [11]): > 1 µM; IC50 [12]: 0.0011 µM; inhibition at 1 µM (HUVEC [13]): < 20%; inhibition at 1 µM (HUVEC [14]): < 20%; inhibition at 1 µM [15]: < 20%; inhibition at 1 µM (HEK293 [16]): < 20%; inhibition at 1 µM (THP-1 [17]): < 20%; inhibition at 1 µM (K562 [18]): < 20%; inhibition at 1 µM (HT-29 [19]): < 20%; inhibition at 1 µM (SW480 [20]): < 20%; inhibition at 1 µM (ZR-75-1 [21]): < 20%; inhibition at 1 µM (PANC-1 [22]): < 20%; inhibition at 1 µM (T-24 [23]): < 20%; inhibition at 1 µM [24]: 61%; inhibition (T-cell [25]): Active; inhibition (T-cell [26]): Active; inhibition (PBMC): Active; ED50 (Rattus norvegicus [27]): 1.4 mg/kg/day; inhibition [28]: inactive; inhibition [29]: inactive; IC50 (T-cell [30]): 0.000407 µM; IC50 [31]: 0.000234 µM; inhibition (T-cell [32]): Active; inhibition (Rattus norvegicus [33]): Active; inhibition (T-cell [34]): inactive; inhibition (T-cell [35]): inactive; inhibition (T-cell [36]): Active
